Laboratory results from US20040023884A1, “Biologically active peptides from functional domains of bactericidal/permeability-increasing protein and uses thereof” (priority 1993, published 2004).
Square brackets hold non-standard residues; d marks the D form. Ends that are not written are not given here. 1Nal = N[C@@H](Cc1cccc2ccccc12)C(=O)O

Assays:
[1] = test system: rough mutant E. coli J5 bacteria; assay: Radial diffusion bactericidal assay, E. coli J5; format: cell-based; conditions: radial diffusion; for pmol added to well to achieve a 30 mm^2 bactericidal zone, E. coli J5: PROBIT analysis, E. coli J5 (rough)
Summary of the method: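 Wells received 5 or 10 μL of BPI fragment, pre-incubated 3 h at 37 °C. The underlayer agarose carried washed log-phase organisms at 4×10^6 CFU/mL.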

[2] = test system: E. coli 0111:B4 (smooth) bacteria; assay: Radial diffusion bactericidal assay, E. coli 0111:B4; format: cell-based; conditions: radial diffusion; PROBIT analysis; E. coli O111:B4 (smooth)
[3] = test system: Staphylococcus aureus; assay: Radial diffusion bactericidal assay, Staphylococcus aureus; format: cell-based; conditions: radial diffusion; PROBIT analysis; S. aureus
[4] = test system: Klebsiella pneumoniae 19645; assay: Radial diffusion bactericidal assay, antibiotic resistant Klebsiella pneumoniae 19645; format: cell-based
Protocol: These studies were conducted substantially following the procedures used in Example 2.
In order to test the bactericidal activity of BPI peptides on antibiotic resistant strains of Klebsiella pneumoniae, the multi-resistant clinically isolated strain 19645 was tested as in Example 2 and above. […] This strain was obtained from the Baxter Microscan® library (Sacramento, Calif.). An overnight culture of Klebsiella pneumoniae 19645 and a non-resistant strain (ATCC 29011) were diluted 1:50 into fresh tryptic soy broth and incubated for 3 hours at 37° C. to attain log phase. The overnight cultures were tested as described in Example 2 and part A above.

[5] = LPS binding by tryptophan fluorescence quenching; conditions: for Kd: Stern-Volmer plots
From the text: (§1) The naturally-occurring amino acid tryptophan can emit light (i.e., it fluoresces) having a wavelength between 300 and 400 nm after excitation with light having a wavelength of between about 280 nm and 290 nm, preferably 285 nm. The amount of emitted light produced by such fluorescence is known to be affected by the local environment, including pH and buffer conditions, as well as binding interactions between proteins and other molecules. Some BPI functional domain peptides derived from domains II and III contain tryptophan residues, and tryptophan fluorescence was used to assay binding interactions between the BPI functional domain peptides of the invention and LPS or heparin.
(§2) Tryptophan fluorescence of the BPI functional domain peptides of the invention was determined in the presence or absence of LPS or heparin using a SPEX Fluorolog fluorimeter. Samples were excited with 285 nm light using a 0.25 nm slitwidth. Emission wavelengths were scanned between 300-400 nm using a 1.25 nm slitwidth. Data were accumulated as the average of three determinations performed over an approximately 5 min time span. Samples were maintained at 25° C. or 37° C. during the course of the experiments using a circulating water bath. Crab endotoxin binding protein (CEBP), a protein wherein the intrinsic fluorescence of tryptophan residues is affected by binding to LPS, was used as a positive control. (See Wainwright et al., 1990, Cellular and Molecular Aspects of Endotoxin Reactions, Nowotny et al., eds., Elsevier Science Publishing B.V., The Netherlands, pp. 315-325).
(§3) Kd values were determined by Scatchard-type Stern-Volmer plots of the quenching data as the negative inverse of the slope of such plots. Comparing the data for BPI.10, BPI.46 and BPI.47, it is seen that as the Kd decreased (indicating an increase in avidity for LPS), the percent fluorescence quenching increased. The differences between these peptides include replacement of basic and polar amino acid residues with non-polar residues in […] as compared with BPI.10. In contrast, as the Kd of heparin binding decreased, a corresponding increase in the percentage of fluorescence quenching was not detected.

[6] = Heparin binding by tryptophan fluorescence quenching; conditions: for Kd: Stern-Volmer plots
From the text: as §1, §2, §3

[7] = 3H-heparin binding assay (affinity and capacity)
Summary of the method: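 Peptide fragments were bound to PVDF-membrane wells and incubated with 3H-heparin in blocking buffer for 1 h at 4 °C. After washing, bound radioactivity was quantified by liquid scintillation counting, with BSA background subtracted; rBPI23 served as positive control.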

[8] = test system: RAW 264.7 cells; assay: LPS neutralization cellular proliferation assay, RAW 264.7 cells; format: cell-based, mouse
Summary of the method: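 Mouse RAW 264.7 cells were primed 24 h with 50U/mL mouse γ-interferon, then exposed about 15 h to E. coli O113 LPS in serum-free RPMI with or without BPI peptides at 25 ng/mL–50 μg/mL. Proliferation was quantified by [^3H]-thymidine uptake, 1 μCi/well, added at 5 h.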

[9] = In vitro heparin-mediated lengthening of APTT / clotting time of heparinized plasma; format: biochemical, human; conditions: FIG. 12g
Protocol: In vitro, the effect of BPI combination functional domain peptides was determined on heparin-mediated lengthening of activated partial […] (APTT). The APTT is lengthened by the presence of endogenous or exogenous inhibitors of thrombin formation, such as therapeutically administered heparin. Thus, agents which neutralize the anti-coagulant effects of heparin will reduce the APTT measured by the test. Citrated human plasma (200 μL) was incubated for 1 minute at 37° C. with either 15 μL of diluent (0.15 M NaCl, 0.1 M Tris-HCl, pH 7.4) or 15 μL of the diluent also containing 25 μg/mL heparin (187 units/mg). Various concentrations (from 0.0 to 56 μg/mL) of rBPI23, rBPI21Δcys, or BPI combination peptides BPI.29 (the DIII homodimer) and BPI.30 (heterodimer DII+DIII) in a volume of 15 μL were added, followed immediately by 100 μL of thrombin reagent (Catalog No. 845-4, Sigma Chemical Co., St. Louis. MO). Clotting time ([…]) was measured using a BBL Fibrometer (Becton Dickenson Microbiology Systems, Cockeysville, Md.). […] FIG. 12e illustrates the results obtained with BPI.30 on a non-log scale.

[10] = Lipid A binding competition with [125I]-rLBP; conditions: for IC50: read-out: IC50 (inhibition of Lipid A binding of radiolabeled rLBP)
Protocol: A second binding assay was developed, wherein radiolabeled recombinant LPS binding protein ([^125I]-rLBP) was used instead of radiolabeled rBPI23 in competition experiments with BPI functional domain peptides BPI.2, BPI.3, BPI.4, BPI.5, BPI.7, BPI.13, BPI.14, BPI.29, BPI.30 and BPI.48, rBPI, rBPI21Δcys, and rLBP25 were included in these assays as controls. In these experiments, Lipid A was adsorbed to the wells at a concentration of 0.7 μg/mL in methanol. Incubation of radiolabeled rLBP (a total of 650,000 cpm and a specific activity of 3.45 μCi/μg) was performed for 2.5 hr at 37° C. in the presence of BPI peptides in a series of increasing concentrations. IC50 values (i.e., the concentration at which Lipid A binding of radiolabeled rLBP25 is inhibited to one half the value achieved in the absence of the peptide) are shown in accompanying Table XI.

[11] = test system: LPS-stimulated NO production by RAW 264.7 cells; assay: LPS-stimulated NO production by RAW 264.7 cells; format: cell-based, mouse
Protocol: (§4) An additional LPS neutralization screening assay for BPI functional domain peptides was developed using an assay for NO production in mouse cells treated with LPS (see Lorsbach et al., 1993, J. Biol. Chem. 268: 1908-1913). In this assay, mouse RAW 264.7 cells (ATCC Accession No. TIB71) were treated with bacterial LPS. The cells were incubated in 96-well plates and stimulated for 2 hours with E. coli 0113 LPS or zymosan, in the presence or absence of _-interferon, rLBP, fetal bovine serum (FBS) or normal human serum (NHS), or rBPI21Δcys. After this incubation, the cells were washed with fresh media and incubated overnight in media containing 10% FCS. The NO released from the cells accumulated in the media and spontaneously converted to nitrite. This nitrite was assayed in situ by the Griess reaction, as follows. The nitrite was reacted with the primary amine of an added sulfanilamide and formed a diazonium salt. This salt was then reacted with added naphthylethylenediamine to form a red azo-dyc. The Griess reaction was performed at room temperature in about 10 minutes. The amount of produced NO was estimated from a standard curve of Griess reaction products determined spectrophotometrically as Absorbance at a wavelength of 550 nm.

[12] = test system: zymosan-stimulated NO production by RAW 264.7 cells; assay: Zymosan-stimulated NO production by RAW 264.7 cells; format: cell-based, mouse
Protocol: as §4

| Molecule | pmol added to well to achieve a 30 mm^2 bactericidal zone, E. coli J5 [1] [pmol] | pmol added to well to achieve a 30 mm^2 bactericidal zone, E. coli O111:B4 [2] [pmol] | pmol added to well to achieve a 30 mm^2 bactericidal zone, S. aureus [3] | bactericidal activity (in words) [4] | Quenching LPS [5] [%] | Kd [5] [nM] | Quenching Heparin [6] [%] | Kd [6] [nM] | effect on the clotting time of heparinized blood (in words) [9] | IC50 (inhibition of Lipid A binding of radiolabeled rLBP) [10] [µg/mL] | IC50 [10] [nM] | inhibition of LPS-stimulated NO production (in words) [11] | inhibition of zymosan-stimulated NO production (in words) [12] | further results |
| --- | --- | --- | --- | --- | --- | --- | --- | --- | --- | --- | --- | --- | --- | --- |
| IKISGKWKAWKRFLKK [BPI.103] | 165.18 | 415.19 | 4,705.95 pmol | active against antibiotic resistant Klebsiella |  |  |  |  |  |  |  |  |  |  |
| BPI 73 (IKISGKWKAQFRFLK) |  |  |  |  | 47 | 66 | 19 | 700 |  |  |  |  |  |  |
| KWKAQKRFLKKWKAAARFLK [BPI.47] | 97.73 | 576.74 | 41,213.59 pmol |  | 41 | 115 | 47 | 2200 |  |  |  |  |  | bactericidal activity (in words) ([1]; E. coli J5): highly bactericidal; heparin binding capacity (in words) [7]: extremely high heparin capacity; Heparin Capacity ([7]; heparin bound at saturation): 576.4 ng; Kd ([7]; read-out: Heparin Affinity): 1910 nM; EC50 (peptide concentration at which the growth inhibitory effect of LPS was reversed by 50%) [8]: 0.9 ± 0.3 µg/mL; IC50 (peptide concentration at which RAW cell growth was inhibited by 50%) [8]: 9.8 ± 0.1 µg/mL |
| IKISGKAβ-(1-naphthyl)KAAβ-(1-naphthyl)KRFLK (IKISGK[1Nal]KA[1Nal]KRFLK) [BPI.119] | 106.70 | 536.44 | 166,163.83 pmol | active against antibiotic resistant Klebsiella |  |  |  |  |  |  |  |  |  |  |
| rBPI: recombinant BPI holoprotein (SEQ ID NO:69) (protein) MRENMARGPCNAPRWVSLMVLVAIGTAVTAAVNPGVVVRISQKGLDYASQQGTAALQKELKRIKIPDYSDSFKIKHLGKGHYSFYSMDIREFQLPSSQISMVPNVGLKFSISNANIKISGKWKAQKRFLKMSGNFDLSIEGMSISADLKLGSNPTSGKPTITCSSCSSHINSVHVHISKSKVGWLIQLFHKKIESALRNKMNSQVCEKVTNSVSSKLQPYFQTLPVMTKIDSVAGINYGLVAPPATTAETLDVQMKGEFYSENHHNPPPFAPPVMEFPAAHDRMVYLGLSDYFFNTAGLVYQEAGVLKMTLRDDMIPKESKFRLTTKFFGTFLPEVAKKFPNMKIQIHVSASTPPHLSVQPTGLTFYPAVDVQAFAVLPNSSLASLFLIGMHTTGSMEVSAESNRLVGELKLDRLLLELKHSNIGPFPVELLQDIMNYIVPILVLPRVNEKLQKGFPLPTPARVQLYNVVLQPHQNFLLFGADVVYK |  |  |  |  |  |  |  |  | less of a decrease in clotting times | 0.65 | 13 | inhibited in a concentration-dependent manner | no significant inhibition |  |
| rLBP25: LBP amino-terminal fragment, first 197 amino acids of lipopolysaccharide binding protein (protein) MGALARALPSILLALLLTSTPEALGANPGLVARITDKGLQYAAQEGLLALQSELLRITLPDFTGDLRIPHVGRGRYEFHSLNIHSCELLHSALRPVPGQGLSLSISDSSIRVQGRWKVRKSFFKLQGSFDVSVKGISISVNLLLGSESSGRPTVTASSCSSDIADVEVDMSGDLGWLLNLFHNQIESKFQKVLESRICEMIQKSVSSDLQPYLQTLPVTTEIDSFADIDYSLVEAPRATAQMLEVMFKGEIFHRNHRSPVTLLAAVMSLPEEHNKMVYFAISDYVFNTASLVYHEEGYLNFSITDEMIPPDSNIRLTTKSFRPFVPRLARLYPNMNLELQGSVPSAPLLNFSPGNLSVDPYMEIDAFVLLPSSSKEPVFRLSVATNVSATLTFNTSKITGFLKPGKVKVELKESKVGLFNAELLEALLNYYILNTFYPKFNDKLAEGFPLPLLKRVQLYDLGLQIHKDFLFLGANVQYMRV |  |  |  |  |  |  |  |  | less of a decrease in clotting times | 15 | 600 | inhibited in a concentration-dependent manner | No inhibition |  |
